Measured values reported in publication PMC11243638, “Enhanced Antioxidant, Anti-Aging, Anti-Tyrosinase, and Anti-Inflammatory Properties of Vanda coerulea Griff. Ex Lindl. Protocorm through Elicitations with Chitosan” (Plants, 2024).
Marks after values point to notes of the source that are not given here.

Columns and labels:
[1] = DPPH radical scavenging assay; type: biochemical; conditions: mean ± SD, triplicate; ND = not determined due to low potency
Description: The capability of the extracts derived from the adult V. coerulea plant and its protocorms to scavenge DPPH radicals was evaluated through a DPPH assay, which was modified from the methods described by Brem et al. (2004). Initially, 20 µL of the sample solution was combined with 180 µL of a DPPH solution, prepared by dissolving […] DPPH in DI water. After incubating the resulting mixture in darkness at room temperature for 30 min, the absorbance was measured at 520 nm using a multimode microplate reader (BMG Labtech GmbH, Ortenberg, Germany). […] Various concentrations of each extract were evaluated, and their DPPH inhibitions were plotted against their logarithmic concentrations to generate dose–response curves. […] L-ascorbic acid was used as the positive control. The analysis was performed in triplicate.

[2] = Ferric-reducing antioxidant power (FRAP) assay; type: biochemical; conditions: mean ± SD, triplicate
Description: The capability of the extracts derived from the adult V. coerulea plant and its protocorms to reduce ferric was evaluated through a FRAP assay, which was modified from the methods described by Saeio et al. (2011). Initially, 20 µL of the sample solution was combined with 180 µL of the FRAP solution, prepared by mixing 0.3 M acetate buffer pH 3.6, 10 mM TPTZ in 40 mM HCl solution and 20 mM ferric chloride solution. After incubating the resulting mixture at room temperature for 5 min, the absorbance was measured at 595 nm using a multimode microplate reader (BMG Labtech GmbH, Ortenberg, Germany). The findings were then expressed as the percentage of ferric reducing ability, calculated according to the subsequent equation:Ferric reducing abilities (%) = [(a − b)/a] × 100,(2) where a is the UV absorbance of the combination without a sample, while b is the UV absorbance of the combination with a sample. Various concentrations of each extract were evaluated, and their ferric reducing abilities were plotted against their logarithmic concentrations to generate dose–response curves. […] L-ascorbic acid was used as the positive control. The analysis was performed in triplicate.

[3] = biological target: T1, porcine pancreatic elastase (Sus scrofa, UniProt P00772); assay: Elastase inhibition, spectrophotometric assay; type: biochemical; conditions: mean ± SD, triplicate; ND = not determined due to low potency
T1 construct: purchased Sigma-Aldrich; host or cells: porcine pancreas
Description: The capability of the extracts derived from the adult V. coerulea plant and its protocorms to inhibit elastase activities was evaluated through a spectrophotometric assay, which was modified from the methods described by Thring et al. (2009). Initially, an elastase solution at a concentration of 0.03 units/mL was prepared, comprising elastase sourced from porcine pancreas, along with 0.2 M Tris-HCl buffer pH 8.0. Subsequently, 10 µL of the sample solution was combined with 40 µL of the elastase solution. After the resulting mixture was incubated for 15 min at ambient temperature, 100 µL of 1.6 mM AAAVPN in tris HCl buffer pH 8.0 was introduced to initiate the enzymatic reaction. Immediately, the absorbance was measured kinetically at 410 nm for a duration of 20 min using a multimode microplate reader (BMG Labtech GmbH, Ortenberg, Germany). […] Various concentrations of each extract were evaluated, and their elastase inhibitions were plotted against their logarithmic concentrations to generate dose–response curves. The IC50 values were calculated from the curves using GraphPad Prism (version 8.0.2, GraphPad Software, Boston, MA, USA). […] was used as the positive control. The analysis was performed in triplicate.

[4] = biological target: collagenase from Clostridium histolyticum; assay: Collagenase (MMP-1) inhibition, spectrophotometric assay with FALGPA; type: biochemical; conditions: mean ± SD, triplicate; ND = not determined due to low potency
Description: The capability of the extracts derived from the adult V. coerulea plant and its protocorms to inhibit the MMP-1 activities was evaluated through a spectrophotometric assay, which was modified from the methods described by Thring et al. (2009). Initially, an MMP-1 solution at a concentration of 0.1 units/mL was prepared, comprising MMP-1 sourced from C. histolyticum, along with 400 mM NaCl, 10 mM CaCl2, and 50 mM tricine buffer pH 7.5. Subsequently, 20 µL of the sample solution was combined with 20 µL of the MMP-1 solution and 80 µL of Tricine buffer pH 7.5. […] Immediately, the absorbance was measured kinetically at 340 nm for a duration of 20 min using a multimode microplate reader (BMG Labtech GmbH, Ortenberg, Germany). The findings were then expressed as the percentage of MMP-1 inhibition, calculated according to the subsequent equation:MMP-1 inhibition (%) = [(a − b)/a] × 100,(3) where a is the reaction rate of the combination without a sample, while b is the reaction rate of the combination with a sample. Various concentrations of each extract were evaluated, and their MMP-1 inhibitions were plotted against their logarithmic concentrations to generate dose–response curves. The IC50 values were calculated from the curves using GraphPad Prism (version 8.0.2, GraphPad Software, Boston, MA, USA). […]

[5] = tested on: chorioallantoic membrane of fertilized hen eggs; assay: Hen's egg-chorioallantoic membrane (HET-CAM) irritation test; conditions: 1% w/v, positive control
Description: The irritation potency of the extracts derived from the adult V. coerulea plant and its protocorms was evaluated through a HET-CAM test, which was previously described by Luepke and Kemper (1986). The fertilized black hen eggs from the Pradu Hang Dam Chiang Mai breed aged between 7 and 9 days were used in the HET-CAM test. As the embryos were in the early stages of development, ethical approval was not required. Typically, hen eggs require 21 days of incubation, and the fertilized eggs aged between 7 to 9 days, which was less than halfway through their incubation cycle, were not considered animals. Prior to the test, the eggshell above the air cell was cracked open, and the inner membrane was moistened with a normal saline solution. […] The duration until the first appearance of each irritation sign was meticulously monitored and recorded in seconds, which enabled the subsequent computation of the irritation score (IS) using the following equation:IS = [(301 − t(h))/300] × 5 + [(301 − t(l))/300] × 7 + [(301 − t(c))/300] × 9,(8) where t(h) is the time of the first appearance of hemorrhage in seconds, t(l) is the time of the first appearance of vascular lysis in seconds, and t(c) is the first appearance of vascular coagulation in seconds. […]

T1 sequence (P00772 27-266): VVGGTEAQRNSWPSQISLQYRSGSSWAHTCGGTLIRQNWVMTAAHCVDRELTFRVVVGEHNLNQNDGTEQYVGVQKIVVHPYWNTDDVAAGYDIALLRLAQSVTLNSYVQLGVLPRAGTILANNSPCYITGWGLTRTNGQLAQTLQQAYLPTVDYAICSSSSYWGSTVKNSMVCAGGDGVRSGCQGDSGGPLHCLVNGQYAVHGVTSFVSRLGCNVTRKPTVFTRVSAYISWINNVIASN

SMILES	IC50 DPPH Inhibition [1]	IC50 Ferric Reducing Capacity [2]	IC50 Elastase Inhibition [3]	IC50 Collagenase Inhibition [4]	IC50 [3] [µM]	Irritation Level [5]	Irritation Score (IS) [5]
O=C1O[C@H]([C@@H](O)CO)C(O)=C1O [AS, ascorbic acid]	3.5 ± 2.9 ^a µg/mL	2.4 ± 0.7 ^a µg/mL	–	–	–	–	–
O=C(O[C@@H]1Cc2c(O)cc(O)cc2O[C@@H]1c1cc(O)c(O)c(O)c1)c1cc(O)c(O)c(O)c1 [EGCG, epigallocatechin gallate]	–	–	0.1 ± 0.0 ^a µg/mL	16.9 ± 3.2 ^b µg/mL	–	–	–
C[C@@H]1O[C@@H](OC[C@H]2O[C@@H](Oc3c(-c4ccc(O)c(O)c4)oc4cc(O)cc(O)c4c3=O)[C@H](O)[C@@H](O)[C@@H]2O)[C@H](O)[C@H](O)[C@H]1O [RT, rutin]	3.2 ± 2.7 ^a µg/mL	12.9 ± 2.0 ^b µg/mL	–	7.6 ± 3.4 ^a µg/mL	17.2	–	–
CCCCCCCCCCCCOS(=O)(=O)[O-].[Na+] [SLS, sodium lauryl sulfate]	–	–	–	–	–	Severe irritation (9.0–21.0 for severe irritation)	15.13 ± 0.3
